Data from publication PMC11822212, “High-throughput screening identifies Aurora kinase B as a critical therapeutic target for Merkel cell carcinoma” (Nature Communications, 2025).
“And” between values parts separate entries of the source, which are not always exact repeats. Equal values may be shown once. Read-outs that look alike come from different tables or passages of the source.

Legend:
Assay in all cases: qHTS cell viability (CellTiter-Glo, 72 h; primary and follow-up small molecule screen)
Format in all cases: cell-based, human
MCC26 cells (VN-MCC) = tested on: MCC26 cells (VN-MCC)
UISO cells (VN-MCC) = tested on: UISO cells (VN-MCC)
MKL-1 cells (VP-MCC) = tested on: MKL-1 cells (VP-MCC)
MKL-2 cells (VP-MCC) = tested on: MKL-2 cells (VP-MCC)
MCC13 cells (VN-MCC) = tested on: MCC13 cells (VN-MCC)
WAGA cells (VP-MCC) = tested on: WAGA cells (VP-MCC)
[1] = follow-up screen, MCC26, replicate 1
[2] = follow-up screen, MCC26, replicate 2
[3] = follow-up screen, MCC26, replicate 3
[4] = follow-up screen, UISO, replicate 1
[5] = follow-up screen, UISO, replicate 2
[6] = follow-up screen, UISO, replicate 3
[7] = follow-up screen, MKL-1, replicate 1
[8] = follow-up screen, MKL-1, replicate 2
[9] = follow-up screen, MKL-1, replicate 3
[10] = follow-up screen, MKL-2, replicate 1
[11] = follow-up screen, MKL-2, replicate 2
[12] = follow-up screen, MKL-2, replicate 3
[13] = follow-up screen, MCC13, replicate 1
[14] = follow-up screen, MCC13, replicate 2
[15] = follow-up screen, MCC13, replicate 3
[16] = follow-up screen, WAGA, replicate 1
[17] = follow-up screen, WAGA, replicate 2
[18] = follow-up screen, WAGA, replicate 3

Row | SMILES | Area under the dose-response curve (AUC) MCC26 Replicate 1 (MCC26 cells (VN-MCC); [1]) | Area under the dose-response curve (AUC) MCC26 Replicate 2 (MCC26 cells (VN-MCC); [2]) | Area under the dose-response curve (AUC) MCC26 Replicate 3 (MCC26 cells (VN-MCC); [3]) | Area under the dose-response curve (AUC) UISO Replicate 1 (UISO cells (VN-MCC); [4]) | Area under the dose-response curve (AUC) UISO Replicate 2 (UISO cells (VN-MCC); [5]) | Area under the dose-response curve (AUC) UISO Replicate 3 (UISO cells (VN-MCC); [6]) | Area under the dose-response curve (AUC) MKL-1 Replicate 1 (MKL-1 cells (VP-MCC); [7]) | Area under the dose-response curve (AUC) MKL-1 Replicate 2 (MKL-1 cells (VP-MCC); [8]) | Area under the dose-response curve (AUC) MKL-1 Replicate 3 (MKL-1 cells (VP-MCC); [9]) | Area under the dose-response curve (AUC) MKL-2 Replicate 1 (MKL-2 cells (VP-MCC); [10]) | Area under the dose-response curve (AUC) MKL-2 Replicate 2 (MKL-2 cells (VP-MCC); [11]) | Area under the dose-response curve (AUC) MKL-2 Replicate 3 (MKL-2 cells (VP-MCC); [12]) | Area under the dose-response curve (AUC) MCC13 Replicate 1 (MCC13 cells (VN-MCC); [13]) | Area under the dose-response curve (AUC) MCC13 Replicate 2 (MCC13 cells (VN-MCC); [14]) | Area under the dose-response curve (AUC) MCC13 Replicate 3 (MCC13 cells (VN-MCC); [15]) | Area under the dose-response curve (AUC) WAGA Replicate 1 (WAGA cells (VP-MCC); [16]) | Area under the dose-response curve (AUC) WAGA Replicate 2 (WAGA cells (VP-MCC); [17]) | Area under the dose-response curve (AUC) WAGA Replicate 3 (WAGA cells (VP-MCC); [18]) | further results
1 | COCc1c(C(C)C)nc(C(C)C)c(/C=C/[C@@H](O)C[C@@H](O)CC(=O)O)c1-c1ccc(F)cc1 [Cerivastatin sodium] | 312.2 | 285.4 | 322.6 | 255.3 | 261.7 | 240.8 | 337.1 | 326.8 | 335.0 | 362.8 | 331.4 | 356.5 | 319.0 | 316.5 | 320.7 | 385.6 | 358.6 | 363.6 | –
2 | O.O=c1c2ccc(O)c(O)c2oc2c(O)c(O)ccc12 [3,4,5,6-Tetrahydroxyxanthone hydrate] | – | – | – | – | – | – | – | – | – | – | – | – | – | – | – | – | – | – | Area under the dose-response curve (AUC) (MCC26 cells (VN-MCC)): 448.2 and 449.4 and 459.1; Area under the dose-response curve (AUC) (UISO cells (VN-MCC)): 455.2 and 451.1 and 430.7; Area under the dose-response curve (AUC) (MKL-1 cells (VP-MCC)): 474.6 and 473.6 and 453.4; Area under the dose-response curve (AUC) (MKL-2 cells (VP-MCC)): 454.0 and 468.2 and 444.8; Area under the dose-response curve (AUC) (MCC13 cells (VN-MCC)): 500.0 and 470.6 and 462.5; Area under the dose-response curve (AUC) (WAGA cells (VP-MCC)): 510.8 and 453.0 and 432.4
3 | COc1ccc2cc3[n+](cc2c1OC)CCc1cc2c(cc1-3)OCO2 [Berberine] | 384.2 | 304.3 | 382.1 | 307.5 | 333.0 | 307.0 | 311.8 | 310.8 | 306.9 | 282.0 | 271.5 | 295.9 | 398.2 | 416.5 | 443.1 | 314.6 | 371.3 | 307.0 | –
4 | Nc1ccc(C(=O)Nc2ccccc2N)cc1 [Dianiline] | 384.0 | 438.4 | 461.6 | 377.0 | 432.3 | 415.8 | 338.4 | 393.7 | 398.6 | 329.9 | 373.4 | 408.4 | 470.9 | 476.2 | 459.3 | 404.2 | 318.5 | 364.2 | –
5 | CC[C@H]1CN2CCc3cc(OC)c(OC)cc3[C@@H]2C[C@@H]1C[C@H]1NCCc2cc(OC)c(OC)cc21 [Emetine] | 331.2 | 367.3 | 295.0 | 267.1 | 258.2 | 246.0 | 316.9 | 311.7 | 312.3 | 297.3 | 300.1 | 296.5 | 319.8 | 335.5 | 310.8 | 343.0 | 356.1 | 341.6 | –
6 | C[C@H]1O[C@@H](O[C@H]2[C@@H](O)C[C@H](O[C@H]3[C@@H](O)C[C@H](O[C@H]4CC[C@@]5(C)[C@H](CC[C@@H]6[C@@H]5CC[C@]5(C)[C@@H](C7=CC(=O)OC7)CC[C@]65O)C4)O[C@@H]3C)O[C@@H]2C)C[C@H](O)[C@@H]1O [Digitoxin] | – | – | – | – | – | – | – | – | – | – | – | – | – | – | – | – | – | – | Area under the dose-response curve (AUC) MCC26 Replicate 1 (MCC26 cells (VN-MCC)): 279.4; Area under the dose-response curve (AUC) MCC26 Replicate 2 (MCC26 cells (VN-MCC)): 294.5; Area under the dose-response curve (AUC) MCC26 Replicate 3 (MCC26 cells (VN-MCC)): 239.6; Area under the dose-response curve (AUC) UISO Replicate 1 (UISO cells (VN-MCC)): 201.4; Area under the dose-response curve (AUC) UISO Replicate 2 (UISO cells (VN-MCC)): 226.6; Area under the dose-response curve (AUC) UISO Replicate 3 (UISO cells (VN-MCC)): 210.4; Area under the dose-response curve (AUC) MKL-1 Replicate 1 (MKL-1 cells (VP-MCC)): 269.2; Area under the dose-response curve (AUC) MKL-1 Replicate 2 (MKL-1 cells (VP-MCC)): 287.7; Area under the dose-response curve (AUC) MKL-1 Replicate 3 (MKL-1 cells (VP-MCC)): 299.6; Area under the dose-response curve (AUC) MKL-2 Replicate 1 (MKL-2 cells (VP-MCC)): 287.6; Area under the dose-response curve (AUC) MKL-2 Replicate 2 (MKL-2 cells (VP-MCC)): 297.9; Area under the dose-response curve (AUC) MKL-2 Replicate 3 (MKL-2 cells (VP-MCC)): 317.5; Area under the dose-response curve (AUC) MCC13 Replicate 1 (MCC13 cells (VN-MCC)): 232.3; Area under the dose-response curve (AUC) MCC13 Replicate 2 (MCC13 cells (VN-MCC)): 249.2; Area under the dose-response curve (AUC) MCC13 Replicate 3 (MCC13 cells (VN-MCC)): 235.6; Area under the dose-response curve (AUC) WAGA Replicate 1 (WAGA cells (VP-MCC)): 276.0; Area under the dose-response curve (AUC) WAGA Replicate 2 (WAGA cells (VP-MCC)): 299.5; Area under the dose-response curve (AUC) WAGA Replicate 3 (WAGA cells (VP-MCC)): 286.7
7 | Cc1ccc(NC(=O)c2cccc(N(C)C)c2)cc1NC(=O)c1ccc(O)cc1 [ZM-336372] | 438.1 | 425.8 | 478.4 | 448.6 | 464.6 | 456.5 | 480.0 | 490.6 | 522.7 | 501.8 | 535.1 | 493.2 | 498.2 | 493.5 | 506.1 | 500.4 | 604.1 | 537.5 | –
8 | O=c1c(O)c(-c2ccccc2)oc2cc(O)cc(O)c12 [GALANGIN] | 408.8 | 418.1 | 468.3 | 448.5 | 479.0 | 418.3 | 418.0 | 452.0 | 473.1 | 358.3 | 486.3 | 480.7 | 501.1 | 489.1 | 476.8 | 517.0 | 423.5 | 495.5 | –
9 | CC(=O)C1=C(O)[C@@H]2[C@H]3c4c[nH]c5cccc(c45)C[C@H]3C(C)(C)N2C1=O [Cyclopiazonic acid] | – | – | – | – | – | – | – | – | – | – | – | – | – | – | – | – | – | – | Area under the dose-response curve (AUC) MCC26 Replicate 1 (MCC26 cells (VN-MCC)): 467.3; Area under the dose-response curve (AUC) MCC26 Replicate 2 (MCC26 cells (VN-MCC)): 434.2; Area under the dose-response curve (AUC) MCC26 Replicate 3 (MCC26 cells (VN-MCC)): 474.3; Area under the dose-response curve (AUC) UISO Replicate 1 (UISO cells (VN-MCC)): 472.8; Area under the dose-response curve (AUC) UISO Replicate 2 (UISO cells (VN-MCC)): 458.0; Area under the dose-response curve (AUC) UISO Replicate 3 (UISO cells (VN-MCC)): 445.8; Area under the dose-response curve (AUC) MKL-1 Replicate 1 (MKL-1 cells (VP-MCC)): 549.5; Area under the dose-response curve (AUC) MKL-1 Replicate 2 (MKL-1 cells (VP-MCC)): 470.8; Area under the dose-response curve (AUC) MKL-1 Replicate 3 (MKL-1 cells (VP-MCC)): 482.5; Area under the dose-response curve (AUC) MKL-2 Replicate 1 (MKL-2 cells (VP-MCC)): 490.7; Area under the dose-response curve (AUC) MKL-2 Replicate 2 (MKL-2 cells (VP-MCC)): 497.0; Area under the dose-response curve (AUC) MKL-2 Replicate 3 (MKL-2 cells (VP-MCC)): 473.0; Area under the dose-response curve (AUC) MCC13 Replicate 1 (MCC13 cells (VN-MCC)): 495.4; Area under the dose-response curve (AUC) MCC13 Replicate 2 (MCC13 cells (VN-MCC)): 488.6; Area under the dose-response curve (AUC) MCC13 Replicate 3 (MCC13 cells (VN-MCC)): 449.6; Area under the dose-response curve (AUC) WAGA Replicate 1 (WAGA cells (VP-MCC)): 561.2; Area under the dose-response curve (AUC) WAGA Replicate 2 (WAGA cells (VP-MCC)): 524.5; Area under the dose-response curve (AUC) WAGA Replicate 3 (WAGA cells (VP-MCC)): 501.8
10 | C[C@]12CCC(=NOCCN)C[C@@H]1C(=O)C[C@@H]1[C@@H]2CC[C@]2(C)C(=O)CC[C@@H]12 [PST-2744 (Istaroxime)] | – | – | – | – | – | – | – | – | – | – | – | – | – | – | – | – | – | – | Area under the dose-response curve (AUC) (MCC26 cells (VN-MCC)): 394.3 and 428.5 and 414.9; Area under the dose-response curve (AUC) (UISO cells (VN-MCC)): 410.4 and 435.6 and 412.5; Area under the dose-response curve (AUC) (MKL-1 cells (VP-MCC)): 437.3 and 438.4 and 450.7; Area under the dose-response curve (AUC) (MKL-2 cells (VP-MCC)): 441.0 and 431.1 and 445.6; Area under the dose-response curve (AUC) (MCC13 cells (VN-MCC)): 404.5 and 430.7 and 432.5; Area under the dose-response curve (AUC) (WAGA cells (VP-MCC)): 454.8 and 457.0 and 435.6
